This is an account of results in publication PMC12040169 (PLOS Biology, 2025).

Broadly, the viability is a read-out of living cells in per cent, often relative to untreated cells.

Each structure is given as a SMILES string.

The nature of this series: in vitro. Conditions: human, hela cells, % viability.

`CC(C)(CN1CCCC1)NC(=O)c1cc(Cl)c(Cl)cc1C(=O)O` [CBK287141]: the viability at 28.5 h, 10 µM is 89%.

On to `CCOc1ccccc1N(CC(=O)O)S(=O)(=O)c1ccc(Cl)cc1` [CBK287144], for which the viability at 28.5 h, 10 µM came out at 110%. Consider `Cc1ccc(CNC(Cc2c[nH]c3ccccc23)C(=O)O)cc1` (stereo not shown) [CBK287145], for which the viability at 28.5 h, 10 µM was 106%. The same measure for `COc1ccc(C(=O)NCCCCCC(=O)O)cc1` [CBK287146]: 109%; for `O=C(O)C1C2CC(c3ccccc3)C(C2)C1C(=O)O` (stereo not shown) [CBK287147]: 95.7%. For the molecule `O=C(O)c1ccc(-c2n[nH]c(=O)c3ccccc23)cc1` [CBK287148], the viability at 28.5 h, 10 µM came out at 108%. The figure for `CC(=O)Nc1ccc(N2CC(C(=O)O)CC2=O)cc1` (stereo not shown) [CBK287149] is 87.1%.

For `CC(Oc1ccccc1)C(=O)Nc1ccc(C(=O)O)cc1` (stereo not shown) [CBK287154], the viability at 28.5 h, 10 µM turned out to be 102%. On to `Cc1ccc(C2c3c(oc4ccccc4c3=O)C(=O)N2CCCCCC(=O)O)cc1` (stereo not shown) [CBK287158], for which the viability at 28.5 h, 10 µM came to 94.1%. Consider `CC1CCCN(c2nc3cc(C(=O)O)sc3[nH]2)C1` (stereo not shown) [CBK287159], for which the viability at 28.5 h, 10 µM stood at 88.8%. As for `O=C(O)c1ccc(-n2nnnc2SCc2ccccc2)cc1` [CBK287161], the viability at 28.5 h, 10 µM was determined as 93.6%.

On to `Cc1ccc(N2C(=O)c3ccc(C(=O)c4ccc(C(=O)O)cc4)cc3C2=O)cc1` [CBK287164], for which the viability at 28.5 h, 10 µM was 93.5%. The figure for `O=C(O)CCC(=O)NCCc1ccc(Cl)cc1` [CBK287165] is 92.7%; for `Cc1cc(C)cc(Nc2c(-c3ccc(C(=O)O)cc3)nc3cnccn23)c1` [CBK287166] it is 73.3%. The figure for `COc1ccc(C2=NNC(c3ccc(C(=O)O)cc3)C2)cc1` (stereo not shown) [CBK287167] is 78%; for `O=C(O)c1ccc(NC2CCS(=O)(=O)C2)cc1` (stereo not shown) [CBK287168] it is 82.3%; for `CC1=CCC2C(=O)N(C(CC(C)C)C(=O)O)C(=O)C2C1` (stereo not shown) [CBK287172] it is 94.6%. The same measure for `CCC(Sc1nc2ccc(F)cc2[nH]1)C(=O)O` (stereo not shown) [CBK287174]: 106%. As for `O=C(O)CC1C(=O)NCCN1CCCc1ccccc1` (stereo not shown) [CBK287176], the viability at 28.5 h, 10 µM amounted to 90.2%.

Turning to `CCC(C)(NC=O)C(=O)Nc1ccccc1C(=O)O` (stereo not shown) [CBK287177], the viability at 28.5 h, 10 µM stood at 97%. For the molecule `O=C(O)c1ccccc1C(=O)N1CCN(c2ccc([N+](=O)[O-])cc2)CC1` [CBK287181], the viability at 28.5 h, 10 µM was determined as 87.7%. Take `O=C(O)CC(C(=O)Nc1ccccc1)N1CCOCC1` (stereo not shown) [CBK287182]: the viability at 28.5 h, 10 µM worked out at 94.8%.

With `O=C(O)C1CCC(N2C(=O)C3C4CCC(C4)C3C2=O)CC1` (stereo not shown) [CBK287183], the viability at 28.5 h, 10 µM came out at 82.2%. The figure for `Cc1cccc(C)c1OCC(=O)NC(C)C(=O)O` (stereo not shown) [CBK287185] is 86.8%; for `Nc1cccc(Oc2ccc3c(c2)C(=O)N(CCC(=O)O)C3=O)c1` [CBK287186] it is 94.1%; for `N#Cc1ccc(CSc2ncccc2C(=O)O)cc1` [CBK287187] it is 85.9%. Turning to `O=C(O)CCCCN1C(=O)c2ccccc2S1(=O)=O` [CBK287189], the viability at 28.5 h, 10 µM is 84.8%.

For the molecule `O=C(/C=C/c1ccccc1)Nc1cccc(C(=O)O)c1` [CBK287193], the viability at 28.5 h, 10 µM was 94%. For `CC1CCN(S(=O)(=O)c2ccc(C(=O)O)cc2)CC1` [CBK287195], the viability at 28.5 h, 10 µM is 82.7%. For `CSc1ccc(C(NC(=O)OC(C)(C)C)C(=O)O)cc1` (stereo not shown) [CBK287196], the viability at 28.5 h, 10 µM was found to be 80.4%. The same measure for `O=C(O)C1CCN(Cc2cnnn2-c2ccccc2F)CC1` [CBK287197]: 82.1%; for `O=C1CC(c2ccc(F)cc2)Cc2[nH]c(=O)c(C(=O)O)cc21` (stereo not shown) [CBK287200]: 88.8%; for `O=C(O)c1ccc(S(=O)(=O)N2CCOCC2)cc1` [CBK287201]: 82.2%. Consider `O=C(O)C1CCCCC1C(=O)NCCCCc1ccccc1` (stereo not shown) [CBK287205], for which the viability at 28.5 h, 10 µM stood at 83.2%. The figure for `O=C(O)C1CCN(C2CC(=O)N(Cc3ccccc3)C2=O)CC1` (stereo not shown) [CBK287206] is 84.8%; for `Cc1cc(C)n(C(CC(=O)c2ccccc2)C(=O)O)n1` (stereo not shown) [CBK287209] it is 90.8%. The figure for `CN1C(=O)CC(Sc2ccccc2C(=O)O)C1=O` (stereo not shown) [CBK287213] is 89.5%. Consider `O=C(O)c1ccc(CNCCc2ccccc2)cc1` [CBK287215], for which the viability at 28.5 h, 10 µM was 101%. Turning to `Nc1cccc2c1C(=O)N(c1ccccc1C(=O)O)C2=O` [CBK287220], the viability at 28.5 h, 10 µM came to 94%. The same measure for `O=C(O)c1ccc(CNCCN2CCOCC2)cc1` [CBK287223]: 101%. Take `COc1ccc(C(=O)CCN(C)CC(=O)O)cc1` [CBK287227]: the viability at 28.5 h, 10 µM turned out to be 89.7%. The figure for `O=C(O)c1ccc(-n2nnnc2SCc2ccc(F)cc2)cc1` [CBK287229] is 95.8%; for `CCOc1ccc(N(Cc2ccc(C(=O)O)cc2)S(C)(=O)=O)cc1` [CBK287231] it is 104%; for `CCN(c1ccccc1C(=O)O)S(=O)(=O)/C=C/c1ccccc1` [CBK287236] it is 96.7%. On to `Cc1c(NCc2ccc3c(c2)n(C)c(=O)n3C)cccc1C(=O)O` [CBK287237], for which the viability at 28.5 h, 10 µM came out at 98.6%. In the case of `O=C(CCc1c[nH]c2ccccc12)Nc1ccccc1C(=O)O` [CBK287242], the viability at 28.5 h, 10 µM was found to be 108%.

Turning to `CN(C)S(=O)(=O)N(C)c1ccc(C(=O)O)cc1` [CBK287244], the viability at 28.5 h, 10 µM was found to be 105%.

As for `O=C(O)CCNC1CC(=O)N(Cc2ccccc2)C1=O` (stereo not shown) [CBK287246], the viability at 28.5 h, 10 µM worked out at 99%. For `O=C(COc1cc(C(=O)O)nc2ccccc12)NCc1ccc(Cl)cc1` [CBK287247], the viability at 28.5 h, 10 µM was determined as 92%. The same measure for `O=C(O)C1C2C=CC3(CN(C4CCCCC4)C(=O)C13)O2` (stereo not shown) [CBK287248]: 84.8%; for `O=C(O)c1cc(-c2c[nH]c3ccc(Cl)cc23)[nH]n1` [CBK287257]: 95%. The figure for `O=C(CCCCCN1C(=O)c2ccccc2C1=O)Nc1cccc(C(=O)O)c1` [CBK287261] is 85.4%.

As to `Cc1ccc(/C=C/C(=O)O)cc1S(=O)(=O)NCC1CCCO1` (stereo not shown) [CBK287267], the viability at 28.5 h, 10 µM was determined as 82.5%.

In the case of `COc1cc(-c2cc(C(=O)O)c3c(-c4ccc(C)cc4)n[nH]c3n2)ccc1O` [CBK287268], the viability at 28.5 h, 10 µM is 83.9%.

Consider `O=C(O)C1(NCc2ccccc2Cl)CCCCC1` [CBK287269], for which the viability at 28.5 h, 10 µM was 78.9%. On to `O=C(O)CCN1CCN(Cc2ccc(Cl)cc2)CC1` [CBK287271], for which the viability at 28.5 h, 10 µM came out at 87.5%. The same measure for `Cc1cnn(-c2cc(Oc3ccccc3)ncn2)c1` [CBK287276]: 114%. The figure for `CN1CCc2c(sc3c2C(=O)NC(c2ccco2)N3)C1` (stereo not shown) [CBK287277] is 99.4%; for `c1ccc(Nc2nc3nonc3n3cnnc23)cc1` [CBK287278] it is 105%; for `c1ccc(Nc2c(-c3ccccc3)nc3[nH]cnn23)cc1` [CBK287284] it is 89.4%. The same measure for `Cc1csc2ncc(C(=O)NCc3ccccc3)c(=O)n12` [CBK287290]: 89.3%.
